Marks after values point to notes of the source that are not given here.
How the values were obtained:
[1] = DPPH radical scavenging assay (antioxidant); conditions: for IC50: pure compounds
Method: The antioxidant potential of the samples was evaluated using DPPH radical scavenging assay, as reported previously. In brief, 180 μL of freshly prepared DPPH solution (0.32 mM in MeOH) was mixed with 20 μL of the sample (in 50% MeOH, extracts and fractions, 50–400 µg/mL; components, 125–500 µM) in a 96-well plate and incubated for 20 min in the dark at 25 °C. Then, the absorbance (570 nm) of the reaction solution was measured using an EL800 microplate reader (Bio-Tek Instruments, Winooski, VT, USA). Quercetin was used as a positive control.

[2] = molecular target: rat lens AR (aldose reductase) (Rattus norvegicus, UniProt P07943); assay: AR inhibition assay with rat lens AR homogenate;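 further: supernatant of Sprague–Dawley rat lens extract as enzyme, DL-glyceraldehyde substrate, absorbance at 340 nm followed over 6 min, DMSO up to 0.5% v/v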
Method: The eyes of 10-week Sprague–Dawley rats (250–280 g) were removed and kept at −70 °C before use. Then, the lenses were removed from the eyes using surgical scissors and tweezers, ground in a mortar (precooled at −70 °C) and extracted using 0.1 M phosphate-buffered saline (PBS) of pH 6.2 (approximately 0.5 mL of buffer per one rat lens). The extract solution was further centrifuged at 10,000× g for 30 min at 4 °C (Mega 17R, Hanil Science Industry, Gimpo, Korea), and the supernatant was collected and used as rat lens AR homogenate.
For AR inhibition assay, 100 µL of 0.1 M PBS (pH 7.0), 20 µL of AR homogenate, 20 µL of NADPH (cofactor, 2.4 mM in 0.1 M PBS of pH 8.0), 20 µL of the sample (in a mixture of water and DMSO; extracts and fractions 62.5–100 µg/mL, compounds 3.9–500 µM), and 20 µL of ammonium sulfate solution (4 M in 0.1 M PBS of pH 7.0) were pipetted into a 96-well plate. Then, 20 µL of the substrate (in 0.1 M PBS of pH 7.0; 25 mM of DL-glyceraldehyde dimmer) was added, and the absorbance (340 nm) was measured for 6 min using an Epoch microplate spectrophotometer (BioTek Instruments, Winooski, VT, USA). […] DMSO was used to prepare samples, but its ratio was kept within 0.5% (v/v) of the reaction system.
The half-maximal inhibitory concentrations (IC50 values) of samples against DPPH radicals and AR were calculated via linear regression and logarithmic analysis, respectively.

[3] = read-out: AR Inhibitory Activity Inhibition (%)

SMILES | DPPH Scavenging Activity Inhibition (%) ([1]; compound concentration 12.5 µM) | DPPH Scavenging Activity Inhibition (%) ([1]; compound concentration 25 µM) | DPPH Scavenging Activity Inhibition (%) ([1]; compound concentration 50 µM) | inhibition at 12.5 µM [2, 3] [%] | inhibition at 25 µM [2, 3] [%] | inhibition at 50 µM [2, 3] [%] | IC50 ([1]; linear regression) [µM] | IC50 [2] [µM] | inhibition at 0.39 µM [2, 3] [%] | inhibition at 0.78 µM [2, 3] [%] | inhibition at 1.56 µM [2, 3] [%] | DPPH Scavenging Activity IC50 ([1]; extracts, fractions and quercetin, linear regression) | DPPH Scavenging Activity Inhibition (%) ([1]; sample concentration 5 µg/mL) | DPPH Scavenging Activity Inhibition (%) ([1]; sample concentration 10 µg/mL) | DPPH Scavenging Activity Inhibition (%) ([1]; sample concentration 20 µg/mL) | inhibition at 2.5 µg/mL [2, 3] [%] | inhibition at 5 µg/mL [2, 3] [%] | inhibition at 6.25 µM [2, 3] [%] | inhibition at 10 µg/mL [2, 3] [%] | inhibition at 3.125 µM [2, 3] [%]
O=C(O)/C=C/c1ccc(O)c(O)c1 [Caffeic acid (1), Caffeic acid] | 8.60 ± 0.87 | 20.21 ± 0.58 | 43.33 ± 0.69 | 12.3 ± 2.09 | 17.8 ± 0.41 | 20.3 ± 0.62 | – | – | – | – | – | – | – | – | – | – | – | – | – | –
CCOC(=O)[C@@H](Cc1ccc(O)c(O)c1)OC(=O)/C=C/c1ccc(O)c(O)c1 [Ethyl rosmarinate (S1), Ethyl rosmarinate] | 22.02 ± 0.35 | 38.38 ± 0.53 | 83.09 ± 0.21 | – | – | – | 30.54 ± 0.13 | 1.02 ± 0.07 | 27.4 ± 2.66 | 43.2 ± 0.62 | 60.5 ± 2.05 | – | – | – | – | – | – | – | – | –
COc1ccc([C@@H]2CC(=O)c3c(O)cc(O[C@@H]4O[C@H](CO[C@@H]5O[C@@H](C)[C@H](O)[C@@H](O)[C@H]5O)[C@@H](O)[C@H](O)[C@H]4O)cc3O2)cc1O [Hesperidin (2), Hesperidin] | 1.20 ± 1.18 | 2.57 ± 0.77 | 3.37 ± 1.32 | 1.78 ± 0.33 | 10 ± 1.22 | 11.6 ± 0.41 | – | – | – | – | – | – | – | – | – | – | – | – | – | –
CCCOC(=O)[C@@H](Cc1ccc(O)c(O)c1)OC(=O)/C=C/c1ccc(O)c(O)c1 [Propyl rosmarinate (S2), Propyl rosmarinate] | 17.68 ± 0.83 | 37.15 ± 0.29 | 77.82 ± 0.46 | – | – | – | 32.7 ± 0.08 | 1.29 ± 0.01 | 12.3 ± 1.84 | 37.9 ± 1.25 | 53.67 ± 0.41 | – | – | – | – | – | – | – | – | –
COc1ccc(-c2cc(=O)c3c(O)cc(O[C@@H]4O[C@H](CO[C@@H]5O[C@@H](C)[C@H](O)[C@@H](O)[C@H]5O)[C@@H](O)[C@H](O)[C@H]4O)cc3o2)cc1O [Diosmin (4), Diosmin] | 0.31 ± 0.69 | 0.61 ± 1.08 | 2.61 ± 0.67 | 8.91 ± 0.62 | 11.2 ± 0.82 | 12.3 ± 0.62 | – | – | – | – | – | – | – | – | – | – | – | – | – | –
COc1ccc(-c2cc(=O)c3c(O)cc(O)cc3o2)cc1O [Diosmetin (6), Diosmetin] | 0.14 ± 0.34 | 0.46 ± 0.35 | 3.18 ± 0.42 | 10.5 ± 3.79 | 22 ± 1.25 | 34 ± 1.03 | – | – | – | – | – | – | – | – | – | – | – | – | – | –
CCCCOC(=O)[C@@H](Cc1ccc(O)c(O)c1)OC(=O)/C=C/c1ccc(O)c(O)c1 [n-Butyl rosmarinate (7), n-Butyl rosmarinate] | 19.98 ± 0.29 | 40.73 ± 1.21 | 84.85 ± 0.81 | – | – | – | 30.02 ± 0.1 | 1.54 ± 0.04 | 13.1 ± 0.47 | 28.6 ± 0.47 | 51.4 ± 0.94 | – | – | – | – | – | – | – | – | –
O=c1c(O)c(-c2ccc(O)c(O)c2)oc2cc(O)cc(O)c12 [Quercetin, quercetin, reference compound] | 22.31 ± 0.92 | 40.39 ± 0.82 | 72.32 ± 0.42 | 45 ± 1.65 | 65.1 ± 1.47 | – | 33.19 ± 0.31 | – | – | – | – | 10.46 ± 0.34 ^e µg/mL | 28.65 ± 0.38 | 54.43 ± 2.07 | 84.78 ± 2.36 | 38.7 ± 0.91 | 55.3 ± 1.58 | 31.5 ± 1.7 | 64 ± 0.88 | –
COC(=O)[C@@H](Cc1ccc(O)c(O)c1)OC(=O)/C=C/c1ccc(O)c(O)c1 [Methyl rosmarinate (5), Methyl rosmarinate] | 18.68 ± 0.63 | 37.59 ± 0.60 | 76.21 ± 1.04 | – | – | – | 33.01 ± 0.27 | 1.17 ± 0.08 | 22.1 ± 0.85 | 40.9 ± 3.47 | 56.7 ± 0.85 | – | – | – | – | – | – | – | – | –
O=C(/C=C/c1ccc(O)c(O)c1)O[C@H](Cc1ccc(O)c(O)c1)C(=O)O [Rosmarinic acid (3), Rosmarinic acid] | 19.05 ± 1.33 | 34.35 ± 0.69 | 67.04 ± 0.64 | 76 ± 1.03 | – | – | 36.91 ± 0.35 | 4.08 ± 0.11 | – | – | – | – | – | – | – | – | – | 62.9 ± 2.1 | – | 42.6 ± 1.63

Source: publication PMC8707451, “Separation and Identification of Antioxidants and Aldose Reductase Inhibitors in Lepechinia meyenii (Walp.) Epling” (Plants, 2021)
